# Data from patent US11717528B2, “Methods and compositions relating to the treatment of fibrosis” (BROWN UNIVERSITY, priority 2017, dated 2023).
# “Also recorded” adds a separate entry of the source.
# Key:
# recombinant Chit1 = recombinant Chit1 (Homo sapiens, UniProt Q13231); assay: Chit1 inhibitor screen and dose-response validation; format: biochemical; details: for ability to inhibit Chit1 (chitotriosidase) activity: among aminoglycoside antibiotics (FIG. 1)
# Experimental: FIG. 4 depicts dose-response validation of inhibitory activities of kasuagmycin on Chit1 activities
# Chit1 is a biomarker and therapeutic target of SSc-ILD, as well as plahing a significant role in bleomycin- and IL-13-induced pulmonary fibrosis. In order to discover new therapeutic approaches for fibrotic diseases, we screened for inhibitors of Chit1, using pentoxifylline as a positive control. The results of the screen were expressed as a % of the inhibitory activity of 200 uM of pentoxifylline. This assay identified 51 compounds that have more than 45% of inhibition (compared to 200 μM pentoxifylline). One of the compounds so identified was kasugamycin.
# (§1) The results were validated by measuring dose-response (FIG. 4). Assay conditions were 0.33 nM of recombinant Chit1, 1 μM of test compound, 4 μM of substrate, 30 min incubation at room temperature.
# [1] = system: TGFβ1-stimulated inflammation and fibrosis; assay: transgenic TGFβ1-stimulated inflammation and fibrosis; format: in vivo, TGFβ1 transgenic mice; details: for fibrosis: transgenic TGFβ1 stimulation (FIG. 10, 11)
# Experimental: FIG. 10 depicts graphs of the effect of Kasugamycin on transgenic TGFβ1-stimulated inflammation and fibrosis
# FIG. 11 depicts the effect of kasugamycin on TGFβ1-stimulated fibrosis. In this figure WT=wild type mice; TG=TGFβ1 transgenic mice.
# as §1
# [2] = cited from earlier work
# [3] = system: bleomycin-induced pulmonary fibrosis; assay: bleomycin I.T. model of pulmonary fibrosis; format: in vivo, mice; details: bleomycin I.T. model (FIG. 9)
# Experimental: FIG. 5 depicts schematic diagrams of in vivo validation of antifibrotic effect of Chit1 inhibitors using bleomycin models of pulmonary fibrosis
# FIG. 9 depicts BAL cell recovery and total lung coallagen with and without Kasugamycin treatment (I.T. Model)
# as §1
# [4] = system: bleomycin-induced pulmonary fibrosis; assay: kasugamycin by gavage in the bleomycin IP model; format: in vivo, WT C57BL/6 mice; details: kasugamycin 50, 100 or 500 mg/kg by gavage everyday
# Experimental: FIGS. 13A-13B depict the effect of kasugamycin when given by gavage in the bleomycin IP model. FIG. 13A depicts a schematic illustration of the experimental procedure. Pulmonary fibrosis was induced in WT C57BL/6 mice by injecting bleomycin 6 times intra-peritoneal (IP) injection (25 unit/kg) daily (day 1-6). Units/injection—100 uL of 6 U/mL bleomycin solution (0.6 unit/injection). Kasugamycin was then administered at 50 mg/kg, 100 mg/kg, or 500 mg/kg, gavage everyday. FIG. 13B depicts a graph of the effects on collagen count. The x-axis specifies the dose of kasugamcyin used.
# [5] = system: fibrosis (collagen accumulation); assay: bleomycin-treated Hermansky-Pudlak syndrome mice; format: in vivo, HPS-1 null mice (pale ear mice); details: bleomycin IP 5 consecutive days, kasugamycin 50 mg/kg qod from day 12
# Experimental: FIG. 12A depicts a schematic illustration of the experiemental procedure. Bleomycin was given IP for 5 consecutive days followed by kasugamycin at 50 mg/kg qod for 7 days starting on day 12. FIG. 12B depicts a graph of the effects on fibrosis (collagen accumulation).
# [6] = system: bleomycin-induced pulmonary fibrosis; assay: bleomycin I.P. model of pulmonary fibrosis, kasugamycin I.P.; format: in vivo, C57 BL/6 mice; details: for pulmonary fibrosis / total lung collagen: bleomycin 25 Unit/kg daily for 6 days, kasugamycin 50 mg/Kg I.P. every other day, 7 doses, Sircol
# Experimental: FIG. 2 depicts a schematic of experiments described herein, using a method reported by Inomata et al (Respiratory Research, 2014, 15:16) that was used for therapeutic efficacy of pirifenidone with minor modification. 8 Week old C57 BL/6 mice were used for the evaluation. Bleomycin (25 Unit/kg) was given daily for 6 days. Seven days after the last bleomycin challenge, Kasugamycin (50 mg/Kg) or PBS were delivered every other day via I.P. injection. The mice received a total of 7 doses of Kasugamycin. The mice were sacrificed a day after the last injection of Kasugamycin.
# FIG. 3A depicts the results of a lung collagen assay by Sircol. FIG. 3B depicts results of RT-PCR assay of selected extracellular matrix genes on lung lysate *p<0.05, **p<0.01 by ANOVA evaluation, Bleo, bleomycin; KSM, kasugamycin.
# The therapeutic window of kasugamycin was investigated using the method described in Inomata et al (Respiratory Research 2014 15:16) that was used to establish the therapeutic efficacy of pirifendidone, with minor modifications. Briefly, 8 week old C57 BL/6 mice were used for the evaluation. Bleomycin (25 Unit/kg) was given daily for 6 days. Seven days after the last bleomycin challenge, kasugamycin (50 mg/Kg) or PBS were delivered every other day via I.P. injection. The mice received a total of 7 doses of kasugamycin. The mice were sacrificed a day after the last injection of kasugamycin (FIG. 2).
# recombinant Chit1, sequence (Q13231 22-466, species assumed): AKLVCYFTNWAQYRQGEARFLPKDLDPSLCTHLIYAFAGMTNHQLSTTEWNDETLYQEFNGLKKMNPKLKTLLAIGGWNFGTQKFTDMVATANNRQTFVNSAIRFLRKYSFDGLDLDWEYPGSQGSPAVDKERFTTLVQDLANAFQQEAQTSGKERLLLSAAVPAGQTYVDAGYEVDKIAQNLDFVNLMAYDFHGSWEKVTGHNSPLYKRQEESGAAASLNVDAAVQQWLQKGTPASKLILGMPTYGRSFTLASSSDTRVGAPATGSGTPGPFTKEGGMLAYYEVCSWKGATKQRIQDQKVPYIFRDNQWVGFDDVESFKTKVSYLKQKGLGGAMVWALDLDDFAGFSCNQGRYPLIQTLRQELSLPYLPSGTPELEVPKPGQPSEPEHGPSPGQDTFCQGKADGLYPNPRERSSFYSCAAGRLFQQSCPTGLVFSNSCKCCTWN
smiles,measurement,setting,value
"C[C@H]1O[C@H](O[C@H]2[C@H](O)[C@@H](O)[C@@H](O)[C@H](O)[C@@H]2O)[C@@H](N)C[C@@H]1NC(=N)C(=O)O [kasugamycin, 2-amino-2-[(2R,3S,5S,6R)-5-amino-2-methyl-6-[(2R,3S,5S,6S)-2,3,4,5,6-pentahydroxycyclohexyl]oxyoxan-3-yl]iminoacetic acid]","inhibition of Chit1, expressed as % of the inhibitory activity of 200 uM pentoxifylline",recombinant Chit1,more than 45%
same,ability to inhibit Chit1 (chitotriosidase) activity,recombinant Chit1,can inhibit Chit1
same,ability to inhibit Chit1 (chitotriosidase) activity,recombinant Chit1; listed as Kasugamycin,unique in its ability to inhibit chitotriosidase activity
same,ability to inhibit Chit1 (chitotriosidase) activity,recombinant Chit1; listed as kasugamcyin,unique amongst aminoglycosides in its ability to inhibit Chit 1
same,inflammation,[1]; transgenic TGFβ1 stimulation (FIG. 10),inhibited inflammation
same,fibrosis,[1],potent inhibitor of fibrosis
same,fibrosis,[1]; listed as Kasuagmyicn,inhibited
same,water solubility,[2],water soluble
same,BAL cell recovery,[3],affected BAL cell recovery
same,fibrosis / lung collagen,[3],reduced lung collagen; also recorded: potent inhibitor of fibrosis
same,fibrosis (collagen count),[4],reduced fibrosis
same,fibrosis (collagen accumulation),[5],potent inhibitor of fibrosis
same,fibrosis (collagen accumulation),[5]; listed as Kasugamycin,reduced fibrosis
same,matrix gene expression (RT-PCR on lung lysate),"[6]; after bleomycin, kasugamycin 50 mg/Kg I.P.",decreased
same,pulmonary fibrosis / total lung collagen,[6],reduction of collagen; also recorded: potent inhibitor of fibrosis; also recorded: reduced pulmonary fibrosis
same,pulmonary fibrosis / total lung collagen,[6]; listed as Kasugamycin,decreased pulmonary fibrosis
same,lung histology,[6]; bleomycin I.P. model (FIG. 7),affect on histology
